Measurements as given in ChEMBL document CHEMBL4482313, “Method and compounds for inhibition of cell death” (2012).
Calls of active or inactive are those of the source. No cut-off for these calls is given here.

Experiments:
[1] = molecular target: T1, Serine protease HTRA2, mitochondrial (Homo sapiens) (UniProt O43464); test: Irreversible inhibition of MBP-fused Omi/HtrA2 (134 to 458 residues) (unknown origin) expressed in TB1 Escherichia coli at 20 to 100 uM pre-incubated for 40 mins to 1 hr before FITC-labeled dephosphorylated casein substrate addition and measured every 5 mins for 30 mins by fluorescence assay
T1 sequence (whole entry): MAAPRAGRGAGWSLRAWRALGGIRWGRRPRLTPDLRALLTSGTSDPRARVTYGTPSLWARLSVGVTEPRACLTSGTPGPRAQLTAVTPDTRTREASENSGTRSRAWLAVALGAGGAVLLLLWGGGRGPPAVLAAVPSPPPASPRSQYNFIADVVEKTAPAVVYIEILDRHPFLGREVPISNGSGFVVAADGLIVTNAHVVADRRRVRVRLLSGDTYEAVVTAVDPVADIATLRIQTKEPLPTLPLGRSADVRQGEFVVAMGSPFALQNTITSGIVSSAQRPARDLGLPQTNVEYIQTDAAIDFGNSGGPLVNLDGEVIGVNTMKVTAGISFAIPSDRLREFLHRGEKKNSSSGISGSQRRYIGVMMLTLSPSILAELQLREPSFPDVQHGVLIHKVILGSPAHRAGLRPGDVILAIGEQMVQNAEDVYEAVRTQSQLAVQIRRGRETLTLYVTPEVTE

[2] = molecular target: T1, Serine protease HTRA2, mitochondrial (Homo sapiens); test: Inhibition of MBP-fused Omi/HtrA2 (134 to 458 residues) (unknown origin) expressed in TB1 Escherichia coli at 20 to 100 uM pre-incubated for 15 mins before FITC-labeled dephosphorylated casein substrate addition and measured every 5 mins for 30 mins by fluorescence assay
[3] = molecular target: T1, Serine protease HTRA2, mitochondrial (Homo sapiens); test: Inhibition of MBP-fused Omi/HtrA2 (134 to 458 residues) (unknown origin) expressed in TB1 Escherichia coli at 20 uM pre-incubated for 15 mins before FITC-labeled dephosphorylated casein substrate addition and measured every 5 mins for 30 mins by fluorescence assay relative to control
Fibroblast [4] = assay type: cell-based; details: mouse, 36 h
[5] = Inhibition of canine F10a using fluorogenic substrate incubated for 20 mins by fluorescence based assay; parameters: species or system Canis lupus familiaris
[6] = molecular target: T1, Serine protease HTRA2, mitochondrial (Homo sapiens); test: Inhibition of His-tagged Omi/HtrA2 (134 to 458 residues) (unknown origin) expressed in TB1 Escherichia coli at 10 to 100 uM pre-incubated for 10 mins before un-labeled beta-casein substrate addition and measured after 30 mins by Coomassie blue staining based SDS-PAGE analysis
[7] = Drug localization in cytoplasm of human HeLa cells at 20 to 50 uM incubated for 2 hrs by confocal laser-scanning microscopy; assay type: ADME, subcellular
[8] = molecular target: T1, Serine protease HTRA2, mitochondrial (Homo sapiens)
[9] = molecular target: T1, Serine protease HTRA2, mitochondrial (Homo sapiens); test: Inhibition of His-tagged Omi/HtrA2 (134 to 458 residues) (unknown origin) expressed in TB1 Escherichia coli at 10 to 50 uM pre-incubated for 15 mins before FITC-labeled dephosphorylated casein substrate addition and measured every 5 mins for 30 mins by fluorescence assay
Canis lupus familiaris = species on record: Canis lupus familiaris; test: Inhibition of cisplatin-induced apoptosis in dog MPT cells at 20 to 50 uM pre-incubated for 20 mins before cisplatin challenge for 6 hrs by annexin-V staining based flow cytometry; assay type: functional, cell-based
[10] = Inhibition of bovine trypsin incubated for 20 mins by fluorescence based assay; parameters: species or system Bos taurus
Fibroblast [11] = assay type: cell-based; details: mouse, 36 h, 25 µM
[12] = molecular target: T1, Serine protease HTRA2, mitochondrial (Homo sapiens); test: Inhibition of MBP-fused Omi/HtrA2 (134 to 458 residues) (unknown origin) expressed in TB1 Escherichia coli at 10 uM pre-incubated for 15 mins before higher 2 times FITC-labeled dephosphorylated casein substrate addition and measured every 5 mins for 30 mins by fluorescence assay
[13] = molecular target: T1, Serine protease HTRA2, mitochondrial (Homo sapiens); test: Inhibition of His-tagged Omi/HtrA2 (134 to 458 residues) (unknown origin) expressed in TB1 Escherichia coli at 80 uM pre-incubated for 10 mins before un-labeled beta-casein substrate addition and measured after 30 mins by Coomassie blue staining based SDS-PAGE analysis
[14] = molecular target: Serine protease HTRA1 (Homo sapiens) (UniProt Q92743); test: Inhibition of His-tagged L56/HtrA1 (140 to 480 residues) (unknown origin) expressed in TB1 Escherichia coli at 10 to 50 uM pre-incubated for 15 mins before FITC-labeled dephosphorylated casein substrate addition and measured every 5 mins for 30 mins by fluorescence assay
Fibroblast [15] = assay type: cell-based; details: mouse, 36 h, 25 µM; remark: listed apart in the source

Sequence of Serine protease HTRA1 (Homo sapiens) (Q92743 whole entry, the tested form may be a part): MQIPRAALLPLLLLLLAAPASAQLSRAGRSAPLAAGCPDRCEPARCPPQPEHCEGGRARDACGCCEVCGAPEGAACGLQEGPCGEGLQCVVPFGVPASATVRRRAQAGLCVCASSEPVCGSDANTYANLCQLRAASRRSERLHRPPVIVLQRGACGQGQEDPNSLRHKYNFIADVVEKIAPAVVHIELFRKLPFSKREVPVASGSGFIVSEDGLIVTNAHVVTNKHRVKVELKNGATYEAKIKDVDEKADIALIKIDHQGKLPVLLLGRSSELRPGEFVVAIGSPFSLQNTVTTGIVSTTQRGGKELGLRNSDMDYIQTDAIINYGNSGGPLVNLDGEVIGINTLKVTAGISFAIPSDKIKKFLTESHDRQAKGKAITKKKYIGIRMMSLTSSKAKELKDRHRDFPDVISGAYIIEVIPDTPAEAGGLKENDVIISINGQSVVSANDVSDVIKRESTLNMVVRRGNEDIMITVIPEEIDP

In the case of `O=C(O)c1cccc(-c2ccc(C=C3C(=O)N(c4ccccc4)C(=S)N(c4ccccc4)C3=O)o2)c1`, the inhibition [1] is reported as “inactive” and the inhibition [2] is reported as “Active”.
In the case of `COc1ccc(-c2ccc(C=C3C(=O)N(c4ccccc4)C(=S)N(c4ccccc4)C3=O)o2)cc1Cl`, the inhibition [1] is reported as “inactive” and the inhibition [2] is reported as “Active”.
In the case of `Cc1ccc([N+](=O)[O-])cc1-c1ccc(C=C2C(=O)N(c3ccccc3)C(=S)N(c3ccccc3)C2=O)o1`, the inhibition [1] is reported as “inactive”, the inhibition [3] is reported as 58% and the inhibition [2] is reported as “Active”.
With `Cc1cccc([N+](=O)[O-])c1-c1ccc(C=C2C(=O)N(c3ccccc3)C(=S)N(c3ccccc3)C2=O)o1` the Activity (Fibroblast [4]) was “Non-Toxic”, the IC50 [5] was 360 to 430 µM and the inhibition [6] was “Dose-dependent effect”. For the same compound, the Drug uptake [7] was “Active”, the inhibition [8] was under 40% and the inhibition [9] was “inactive”. The inhibition (Canis lupus familiaris) was “Dose-dependent effect”, the IC50 [10] was over 500 µM and the Activity (Fibroblast [11]) was “Non-Toxic”. For the same compound, the inhibition [12] was “inactive”, the inhibition [1] was “inactive” and the inhibition [3] was over 78%. The inhibition [2] was “Active”, the inhibition [13] was 100% and the inhibition [14] was “Active”. For the same compound, the Activity (Fibroblast [15]) was “Non-Toxic”.
